Data taken from ChEMBL document CHEMBL1221373, “Lactarane sesquiterpenoids from Lactarius subvellereus and their cytotoxicity” (Bioorg Med Chem Lett, 2010).

Columns and labels:
Type in all cases: functional, cell-based
A549 = assay: Cytotoxicity against human A549 cells by SRB assay
SK-OV-3 = assay: Cytotoxicity against human SKOV3 cells by SRB assay
SK-MEL-2 = assay: Cytotoxicity against human SK-MEL-2 cells by SRB assay
HCT-15 = assay: Cytotoxicity against human HCT15 cells by SRB assay

CC1(C)C[C@H]2[C@H](O)c3cocc3C[C@](C)(O)[C@H]2C1 [FURANDIOL]
IC50 (A549): > 30 µM | IC50 (SK-OV-3): > 30 µM | IC50 (SK-MEL-2): > 30 µM | IC50 (HCT-15): > 30 µM

CC1(C)C[C@H]2[C@H](O)C3=C(C[C@](C)(O)[C@H]2C1)C(=O)OC3O (stereo partly specified) [LACTAROLIDE A]
IC50 (A549): 22.9 µM | IC50 (SK-OV-3): > 30 µM | IC50 (SK-MEL-2): 28.3 µM | IC50 (HCT-15): 28.6 µM

C[C@@H]1[C@@H]2C(=CC3=C(C(=O)O[C@@H]3O)[C@@H]1O)CC(C)(C)[C@@H]2O [SUBVELLEROLACTONES D]
IC50 (A549): 25.1 µM | IC50 (SK-OV-3): > 30 µM | IC50 (SK-MEL-2): > 30 µM | IC50 (HCT-15): 17.8 µM

CC1(C)C[C@@H]2[C@H]([C@H]1O)[C@@](C)(O)CC1=C(C(=O)OC1)[C@H]2O [5-DESOXYLACTAROLIDE B]
IC50 (A549): 17.9 µM | IC50 (SK-OV-3): > 30 µM | IC50 (SK-MEL-2): > 30 µM | IC50 (HCT-15): 29.3 µM

C[C@@H]1[C@@H]2C(=CC3=C(C(=O)O[C@H]3O)[C@@H]1O)CC(C)(C)[C@@H]2O [SUBVELLEROLACTONES E]
IC50 (A549): 19.6 µM | IC50 (SK-OV-3): > 30 µM | IC50 (SK-MEL-2): > 30 µM | IC50 (HCT-15): 28.7 µM

COc1cccc2c1C(=O)c1c(O)c3c(c(O)c1C2=O)C[C@@](O)(C(=O)CO)C[C@@H]3O[C@H]1C[C@H](N)[C@H](O)[C@H](C)O1 [DOXORUBICIN]
IC50 (SK-OV-3): 0.001 µM | IC50 (SK-MEL-2): 0.002 µM | IC50 (HCT-15): 0.028 µM

C[C@H]1CC2=C(COC2=O)C[C@@H]2[C@@H](O)[C@](C)(CO)C[C@@]21O [SUBVELLEROLACTONES B]
IC50 (A549): 26.5 µM | IC50 (SK-OV-3): > 30 µM | IC50 (SK-MEL-2): 18.3 µM | IC50 (HCT-15): 14.2 µM

CC1(C)C[C@H]2[C@H](O)C3=C(C[C@](C)(O)[C@H]2C1)C(=O)OC3 [LACTARORUFIN A]
IC50 (A549): 27 µM | IC50 (SK-OV-3): > 30 µM | IC50 (SK-MEL-2): > 30 µM | IC50 (HCT-15): 20.9 µM
